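Test compounds were applied to cells in 96-well plates for 48 hours at 5 doses. Abbreviation: GI50, concentration required for 50% inhibition of growth.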 Activity calls are given as the source filed them. Cut-off read from the data, not from the text of the source: active = GI50 up to about 1.1 µM and inactive = higher.
How the values were obtained:
Assay in all cases: NCI anticancer screen, dose series, 48 h
A498 = system: A498
ACHN = system: ACHN
BT-549 = system: BT-549
COLO 205 = system: COLO 205
HCC 2998 = system: HCC 2998
HCT-15 = system: HCT-15
K562 = system: K562
M14 = system: M14
NCI-H23 = system: NCI-H23
OVCAR-5 = system: OVCAR-5
PC-3 = system: PC-3
RPMI-8226 = system: RPMI-8226
SK-MEL-5 = system: SK-MEL-5
SNB-75 = system: SNB-75
TK-10 = system: TK-10
U-251 = system: U-251
UACC-257 = system: UACC-257
UACC-62 = system: UACC-62
SF-539 = system: SF-539
RXF 393 = system: RXF 393

SMILES	GI50 (A498)	GI50 (ACHN)	GI50 (BT-549)	GI50 (COLO 205)	GI50 (HCC 2998)	GI50 (HCT-15)	GI50 (K562)	GI50 (M14)	GI50 (NCI-H23)	GI50 (OVCAR-5)	GI50 (PC-3)	GI50 (RPMI-8226)	GI50 (SK-MEL-5)	GI50 (SNB-75)	GI50 (TK-10)	GI50 (U-251)	GI50 (UACC-257)	GI50 (UACC-62)	GI50 (SF-539)	GI50 (RXF 393)
CCOC(=O)CCc1cccc2c1oc1c(CCNC(=O)OCC3c4ccccc4-c4ccccc43)cccc12	> 100 µM (inactive)	44.3 µM (inactive)	22.5 µM (inactive)	34.5 µM (inactive)	> 100 µM (inactive)	> 100 µM	> 100 µM (inactive)	38.5 µM (inactive)	25.6 µM (inactive)	> 100 µM (inactive)	35.2 µM (inactive)	> 100 µM (inactive)	29.2 µM (inactive)	13.1 µM (inactive)	40.4 µM (inactive)	57.3 µM (inactive)	41.9 µM (inactive)	16.4 µM (inactive)	–	–
CO/N=C1\CCC2(O)C3Cc4ccc(O)c5c4C2(CCN3CC2CC2)[C@H]1O5 (stereo partly drawn)	> 100 µM (inactive)	> 100 µM (inactive)	> 100 µM (inactive)	> 100 µM (inactive)	–	> 100 µM	> 100 µM (inactive)	> 100 µM (inactive)	> 100 µM (inactive)	> 100 µM (inactive)	> 100 µM (inactive)	> 100 µM (inactive)	> 100 µM (inactive)	–	> 100 µM (inactive)	> 100 µM (inactive)	–	> 100 µM (inactive)	> 100 µM (inactive)	–
CCOC(=O)[C@@]1(C)CC(O)C(=O)N1C (stereo partly drawn)	–	> 100 µM (inactive)	> 100 µM (inactive)	> 100 µM (inactive)	> 100 µM (inactive)	> 100 µM	–	> 100 µM (inactive)	> 100 µM (inactive)	> 100 µM (inactive)	> 100 µM (inactive)	> 100 µM (inactive)	> 100 µM (inactive)	–	> 100 µM (inactive)	> 100 µM (inactive)	> 100 µM (inactive)	> 100 µM (inactive)	> 100 µM (inactive)	> 100 µM (inactive)
O=C1c2cc([N+](=O)[O-])cnc2S(=O)(=O)N1c1ccc(Oc2ccccc2)cc1	–	> 100 µM (inactive)	> 100 µM (inactive)	> 100 µM (inactive)	> 100 µM (inactive)	> 100 µM	> 100 µM (inactive)	> 100 µM (inactive)	> 100 µM (inactive)	> 100 µM (inactive)	> 100 µM (inactive)	> 100 µM (inactive)	–	> 100 µM (inactive)	> 100 µM (inactive)	> 100 µM (inactive)	–	> 100 µM (inactive)	–	34.2 µM (inactive)
O=[N+]([O-])/C(C(Cl)=C(Cl)Cl)=C(/Cl)Sc1ccccc1	2 µM (inactive)	2.08 µM (inactive)	–	1.23 µM (inactive)	2.7 µM (inactive)	2.15 µM	0.59 µM (active)	1.82 µM (inactive)	1.77 µM (inactive)	2 µM (inactive)	2.26 µM (inactive)	0.306 µM (active)	2.12 µM (inactive)	15 µM (inactive)	2.67 µM (inactive)	2.25 µM (inactive)	1.25 µM (inactive)	1.8 µM (inactive)	1.99 µM (inactive)	2.62 µM (inactive)
COc1ccc(C(=O)C#Cc2cn(C3CC(O)C(CO)O3)c(=O)[nH]c2=O)cc1 (stereo not drawn)	–	> 100 µM (inactive)	20.2 µM (inactive)	33.3 µM (inactive)	> 100 µM (inactive)	> 100 µM	36.5 µM (inactive)	17.9 µM (inactive)	> 100 µM (inactive)	–	> 100 µM (inactive)	> 100 µM (inactive)	28.4 µM (inactive)	> 100 µM (inactive)	78.3 µM (inactive)	> 100 µM (inactive)	94.8 µM (inactive)	55.5 µM (inactive)	19.3 µM (inactive)	52.2 µM (inactive)
CC(=O)OCC1OC(c2c(OC(C)=O)cc(C)c3c(=O)cc(/C(C(C)=O)=C(\C)O)oc23)C(OC(C)=O)C(OC(C)=O)C1OC(C)=O (stereo not drawn)	–	> 100 µM (inactive)	> 100 µM (inactive)	> 100 µM (inactive)	> 100 µM (inactive)	> 100 µM	> 100 µM (inactive)	> 100 µM (inactive)	> 100 µM (inactive)	> 100 µM (inactive)	> 100 µM (inactive)	> 100 µM (inactive)	> 100 µM (inactive)	49.5 µM (inactive)	> 100 µM (inactive)	> 100 µM (inactive)	> 100 µM (inactive)	> 100 µM (inactive)	> 100 µM (inactive)	> 100 µM (inactive)
NS(=O)(=O)c1nnc(NC(=O)N(c2ccccc2)c2ccccc2)s1	–	–	16.1 µM (inactive)	37.9 µM (inactive)	–	22.5 µM	33.5 µM (inactive)	15.2 µM (inactive)	19.1 µM (inactive)	24.8 µM (inactive)	33 µM (inactive)	17 µM (inactive)	22.7 µM (inactive)	18.5 µM (inactive)	41.2 µM (inactive)	43.7 µM (inactive)	36.1 µM (inactive)	21.9 µM (inactive)	17.6 µM (inactive)	18.4 µM (inactive)
Cc1ccc(-c2nc(C)c(C(=O)Nc3ccc(Cl)cc3)s2)cc1	14.3 µM (inactive)	18.4 µM (inactive)	13.9 µM (inactive)	> 100 µM (inactive)	–	> 100 µM	> 100 µM (inactive)	27.7 µM (inactive)	24.2 µM (inactive)	82.2 µM (inactive)	44.8 µM (inactive)	> 100 µM (inactive)	20.1 µM (inactive)	15.1 µM (inactive)	20.6 µM (inactive)	22.1 µM (inactive)	> 100 µM (inactive)	19.6 µM (inactive)	29.9 µM (inactive)	–
O=c1[nH]nc(Nc2ccccc2)c2nnn(C3CCCCC3)c12	–	> 100 µM (inactive)	> 100 µM (inactive)	> 100 µM (inactive)	> 100 µM (inactive)	> 100 µM	> 100 µM (inactive)	> 100 µM (inactive)	> 100 µM (inactive)	> 100 µM (inactive)	> 100 µM (inactive)	> 100 µM (inactive)	> 100 µM (inactive)	–	> 100 µM (inactive)	> 100 µM (inactive)	> 100 µM (inactive)	–	–	–
S=C1CC(c2ccccc2)Sc2ccccc2N1 (stereo not drawn)	–	69 µM (inactive)	53 µM (inactive)	> 100 µM (inactive)	–	93.3 µM	> 100 µM (inactive)	45 µM (inactive)	81.8 µM (inactive)	76.6 µM (inactive)	6.85 µM (inactive)	> 100 µM (inactive)	66.8 µM (inactive)	20.9 µM (inactive)	49.3 µM (inactive)	44.2 µM (inactive)	> 100 µM (inactive)	51.1 µM (inactive)	–	28.4 µM (inactive)
O=C(CN1CCOCC1)Nc1ccc2c(c1)C1Oc3ccccc3CC1CO2 (stereo not drawn)	> 100 µM (inactive)	> 100 µM (inactive)	38.1 µM (inactive)	> 100 µM (inactive)	> 100 µM (inactive)	> 100 µM	> 100 µM (inactive)	> 100 µM (inactive)	> 100 µM (inactive)	> 100 µM (inactive)	> 100 µM (inactive)	> 100 µM (inactive)	58.9 µM (inactive)	–	> 100 µM (inactive)	> 100 µM (inactive)	> 100 µM (inactive)	> 100 µM (inactive)	> 100 µM (inactive)	–

Reference: ChEMBL document CHEMBL1201862, “PubChem BioAssay data set” (2004)
